Reference: patent US20240368104A1, “Novel Dialkoxynaphtho[2,3-C]Furan-1(3H)-One Derivatives and Pharmaceutical Composition For Preventing or Treating Respiratory Disease or SARS-COV-2 Infection Disease, Comprising Same” (priority 2021, published 2024)
Structures can show the parent of a compound that is named as a salt. Where two headings read alike, the source gives them in different places.

Tests used:
in vitro = conditions: African green monkey
SARS-COV-2 = test: microbe, parasite or virus in culture; type: cell-based; set-up: SI (Selectivity Index, CC50/IC50): unit not given here; conditions: for SI (Selectivity Index, CC50/IC50): SARS-COV-2, values >50 assumed to be 50; for IC50: read-out: SARS-COV-2 inhibition (IC50)
[1] = Severe acute respiratory syndrome coronavirus 2, Vero cells, 24 hours infection
[2] = Severe acute respiratory syndrome coronavirus 2, Vero, 24 h

Row | SMILES | CC50 (in vitro) | SI (Selectivity Index, CC50/IC50) (SARS-COV-2) | IC50 (SARS-COV-2; [1]) | IC50 (SARS-COV-2; [2])
1 | COc1cc2cc3c(c(-c4ccc(N(C)C(C)=O)nc4)c2cc1OC)C(=O)OC3 [Example 230, N-(5-(6,7-dimethoxy-3-oxo-1,3-dihydronaphtho[2,3-c]furan-4-yl)pyridin-2-yl)-N-methylacetamide] | > 50 µM | 2.45 | 20.4 µM | –
2 | CC[C@H](C)[C@H](N)C(=O)Oc1cc2c(cc1-c1c3c(cc4cc(OC)c(OC)cc14)COC3=O)OCO2 [Example 270, 6-(6,7-dimethoxy-3-oxo-1,3-dihydronaphtho[2,3-c]furan-4-yl)benzo[d][1,3]dioxol-5-yl L-isoleucinate] | > 50 µM | 122.64 | – | 0.41 µM
3 | CCN(Cc1ccccc1C(F)(F)F)c1ccc(-c2c3c(cc4cc(OC)c(OC)cc24)COC3=O)cn1 [Example 209, 9-(6-(ethyl(2-(trifluoromethyl)benzyl)amino)pyridin-3-yl)-6,7-dimethoxynaphtho[2,3-c]furan-1(3H)-one] | > 50 µM | 14.52 | 3.44 µM | –
4 | COc1cc2cc3c(c(-c4cnc(N(C)CCC5OCCO5)nc4)c2cc1OC)C(=O)OC3 [Example 158, 9-(2-((2-(1,3-dioxolan-2-yl)ethyl)(methyl)amino)pyrimidin-5-yl)-6,7-dimethoxynaphtho[2,3-c]furan-1(3H)-one] | > 50 µM | 7.26 | 6.89 µM | –
5 | COc1cc2cc3c(c(-c4ccc(N(C)c5nc6ccccc6s5)nc4)c2cc1OC)C(=O)OC3.Cl [Example 225, 9-(6-(benzo[d]thiazol-2-yl(methyl)amino)pyridin-3-yl)-6,7-dimethoxynaphtho[2,3-c]furan-1(3H)-one] | 32.4 µM | 0.65 | – | > 50 µM
6 | CNc1cccc(-c2c3c(cc4cc(OC)c(OC)cc24)COC3=O)c1 [Example 257, 6,7-dimethoxy-9-(3-(methylamino)phenyl)naphtho[2,3-c]furan-1(3H)-one] | > 50 µM | 6.24 | 8.01 µM | –
7 | COc1cc2cc3c(c(-c4cnc(NCC5CC5)nc4)c2cc1OC)C(=O)OC3 [Example 67, 9-(2-((cyclopropylmethyl)amino)pyrimidin-5-yl)-6,7-dimethoxynaphtho[2,3-c]furan-1(3H)-one] | > 50 µM | 2.72 | 18.4 µM | –
8 | COc1cc2cc3c(c(-c4cc(C)nc5c(F)cccc45)c2cc1OC)C(=O)OC3 [Example 134, 9-(8-fluoro-2-methylquinolin-4-yl)-6,7-dimethoxynaphtho[2,3-c]furan-1(3H)-one] | > 50 µM | 1.0 | > 50 µM | –
9 | COc1cc2cc3c(c(-c4ccc(N(C)C(=O)N5CCOCC5)nc4)c2cc1OC)C(=O)OC3 [Example 235, N-(5-(6,7-dimethoxy-3-oxo-1,3-dihydronaphtho[2,3-c]furan-4-yl)pyridin-2-yl)-N-methylmorpholin-4-carboxamide] | > 50 µM | 1.00 | > 50 µM | –
10 | COc1cc2cc3c(c(N4C[C@@H](C)O[C@@H](C)C4)c2cc1OC)C(=O)OC3 [Example 2, 9-((2S,6R)-2,6-dimethylmorpholino)-6,7-dimethoxynaphtho[2,3-c]furan-1(3H)-one] | > 50 µM | 1.00 | > 50 µM | –
11 | COc1cc2cc3c(c(-c4ccc(-n5nc(N(C)C)nc5SC)nc4)c2cc1OC)C(=O)OC3.Cl [Example 223, 9-(6-(3-(dimethylamino)-5-(methylthio)-1H-1,2,4-triazol-1-yl)pyridin-3-yl)-6,7-dimethoxynaphtho[2,3-c]furan-1(3H)-one] | > 50 µM | 3.11 | – | 16.1 µM
12 | CCN(CC)CCNc1ncc(-c2c3c(cc4cc(OC)c(OC)cc24)COC3=O)cn1 [Example 58, 9-(2-((2-(diethylamino)ethyl)amino)pyrimidin-5-yl)-6,7-dimethoxynaphtho[2,3-c]furan-1(3H)-one] | > 50 µM | 1.66 | 30.1 µM | –
13 | COc1cc2cc3c(c(-c4ccc(N5CCn6c(nnc6C(F)(F)F)C5)nc4)c2cc1OC)C(=O)OC3 [Example 240, 6,7-dimethoxy-9-(6-(3-(trifluoromethyl)-5,6-dihydro-[1,2,4]triazolo[4,3-a]pyrazin-7 (8H)-yl)pyridin-3-yl)naphtho[2,3-c]furan-1(3H)-one] | > 50 µM | 1.00 | > 50 µM | –
14 | CCC(C)CN(C)c1ccc(-c2c3c(cc4cc(OC)c(OC)cc24)COC3=O)cn1.Cl (stereo not drawn) [Example 176, 6,7-dimethoxy-9-(6-(methyl(2-methylbutyl)amino)pyridin-3-yl)naphtho[2,3-c]furan-1(3H)-one] | > 50 µM | 22.63 | – | 2.21 µM
15 | COCCN(CCOC)c1ccc(-c2c3c(cc4cc(OC)c(OC)cc24)COC3=O)cn1 [Example 174, 9-(6-(bis(2-methoxyethyl)amino)pyridin-3-yl)-6,7-dimethoxynaphtho[2,3-c]furan-1(3H)-one] | > 50 µM | 2.62 | 19.1 µM | –
16 | COc1cc2cc3c(c(-c4cnc(Oc5cccc6ccccc56)nc4)c2cc1OC)C(=O)OC3 [Example 21, 6,7-dimethoxy-9-(2-(naphthalen-1-yloxy)pyrimidin-5-yl)naphtho[2,3-c]furan-1(3H)-one] | > 50 µM | 1.00 | > 50 µM | –
17 | COc1cc2cc3c(c(-c4ccnc(Cl)c4)c2cc1OC)C(=O)OC3 [Example 184, 9-(2-chloropyridin-4-yl)-6,7-dimethoxynaphtho[2,3-c]furan-1(3H)-one] | > 50 µM | 1.0 | > 50 µM | –
18 | COC[C@@H]1CCCN1c1ncc(-c2c3c(cc4cc(OC)c(OC)cc24)COC3=O)cn1.Cl [Example 97, (S)-6,7-dimethoxy-9-(2-(2-(methoxymethyl)pyrrolidin-1-yl)pyrimidin-5-yl)naphtho[2,3-c]furan-1(3H)-one hydrochloride] | > 50 µM | 8.74 | – | 5.72 µM
19 | COc1cc2cc3c(c(N4CCN(c5ccc(Br)cn5)CC4)c2cc1OC)C(=O)OC3 [Example 129, 9-(4-(5-bromopyridin-2-yl)piperazin-1-yl)-6,7-dimethoxynaphtho[2,3-c]furan-1(3H)-one] | > 50 µM | 2.29 | 21.8 µM | –
20 | COc1cc2cc3c(c(-c4ccc(N(C)[C@H]5CCc6c(cccc6OC)C5)nc4)c2cc1OC)C(=O)OC3 [Example 164, (S)-6,7-dimethoxy-9-(6-((5-methoxy-1,2,3,4-tetrahydronaphthalen-2-yl)(methyl)amino)pyridin-3-yl)naphtho[2,3-c]furan-1(3H)-one] | > 50 µM | 39.02 | 1.28 µM | –
21 | COc1cc2cc3c(c(-c4cnc(N(C)C)nc4)c2cc1OC)C(=O)OC3 [Example 11, 9-(2-(dimethylamino)pyrimidin-5-yl)-6,7-dimethoxynaphtho[2,3-c]furan-1(3H)-one] | > 50 µM | 309.03 | 0.16 µM | –
22 | CCN(CC)c1ccc(-c2c3c(cc4cc(OC)c(OC)cc24)COC3=O)cc1 [Example 249, 9-(4-(diethylamino)phenyl)-6,7-dimethoxynaphtho[2,3-c]furan-1(3H)-one] | > 50 µM | 100.23 | 0.5 µM | –
23 | COc1cc2cc3c(c(-c4ccc5nc(C)ccc5c4)c2cc1OC)C(=O)OC3 [Example 116, 6,7-dimethoxy-9-(2-methylquinolin-6-yl)naphtho[2,3-c]furan-1(3H)-one] | > 50 µM | 43.72 | 1.14 µM | –
24 | CCCCN(C)c1ccc(-c2c3c(c(OC)c4cc(OC)c(OC)cc24)C(=O)OC3)cn1.Cl [Example 261, 4-(6-(butyl(methyl)amino)pyridin-3-yl)-6,7,9-trimethoxynaphtho[2,3-c]furan-1(3H)-one] | > 50 µM | 4.21 | – | 11.9 µM
25 | COc1cc2cc3c(c(-c4ccc(N5CCC(Cl)CC5)nc4)c2cc1OC)C(=O)OC3 [Example 142, 9-(6-(4-chloropiperidin-1-yl)pyridin-3-yl)-6,7-dimethoxynaphtho[2,3-c]furan-1(3H)-one] | > 50 µM | 25.00 | 2 µM | –
26 | COc1cc2cc3c(c(-c4cnc(N5CCc6sccc6C5)nc4)c2cc1OC)C(=O)OC3 [Example 12, 9-(2-(6,7-dihydrothieno[3,2-c]pyridin-5 (4H)-yl)pyrimidin-5-yl)-6,7-dimethoxynaphtho[2,3-c]furan-1(3H)-one] | > 50 µM | 60.38 | 0.83 µM | –
27 | COc1cc2cc3c(c(-c4ccc(N5CCc6ccccc6C5)nc4)c2cc1OC)C(=O)OC3.Cl [Example 189, 9-(6-(3,4-dihydroisoquinolin-2 (1H)-yl)pyridin-3-yl)-6,7-dimethoxynaphtho[2,3-c]furan-1(3H)-one] | > 50 µM | 72.26 | – | 0.69 µM
28 | COc1cc2cc3c(c(-c4ccnc5c(OC)cccc45)c2cc1OC)C(=O)OC3 [Example 140, 6,7-dimethoxy-9-(8-methoxyquinolin-4-yl)naphtho[2,3-c]furan-1(3H)-one] | > 50 µM | 1.0 | > 50 µM | –
29 | CCCN(CC1CC1)c1ncc(-c2c3c(cc4cc(OC)c(OC)cc24)COC3=O)cn1 [Example 105, 9-(2-((cyclopropylmethyl)(propyl)amino)pyrimidin-5-yl)-6,7-dimethoxynaphtho[2,3-c]furan-1(3H)-one hydrochloride] | > 50 µM | 9.56 | – | 5.23 µM
